Experimental data from patent publication US20130202649A1, “ACTIVATION OF INNATE IMMUNITY FOR NUCLEAR REPROGRAMMING OF SOMATIC CELLS” (The Board of Trustees of the Leland Stanford Junior …, priority 2012, published 2013).

Tests used:
[1] = test system: MEFs expressing a dox-inducible polycistronic transgene construct encoding the four reprogramming factors; assay: Doxycycline-inducible iPSC generation from secondary MEFs; assay type: cell-based, mouse; settings: Dox-treated MEFs
Method: To further test the hypothesis that TLR3 activation was required for efficient reprogramming, we isolated MEFs from murine embryos expressing a doxycycline (Dox)-inducible polycistronic transgene construct encoding the four reprogramming factors. To generate iPSCs, 10^5 MEFs/per well in 6-well plates were treated with Dox. In some wells, poly I:C was also added for the initial 6 days of the reprogramming process. In other wells, cells were infected with pMX-GFP on the first day of Dox treatment. Poly I:C or pMX-GFP each accelerated the expression of Oct4 and Sox2 (FIG. 6A). […] Similarly, infection with pMX-GFP seemed to accelerate colony formation, as a number of small colonies were observed by day 7 in the viral particle infected group (FIG. 16). By day 14, typical mES-like colonies appeared, many of which had activated SSEA-1. At this time point, the number of typical SSEA-1^+ colonies were increased by 7-8 fold in wells exposed to viral particles or poly I:C (FIG. 6B). Colony number increased further by day 21-28 (FIGS. 6B and 6C). […]
Doxycycline-induced iPSCs: As previously described (Wernig et al., 2008), MEFs from chimeric embryos at E13.5 were isolated. […] The generation of iPSC colonies was monitored daily and scored at days 14 and 21. […]

human fibroblasts = assay: CPP-induced generation of human iPSCs; assay type: cell-based
Text: It is known that persistent expression (about 2 weeks) of the reprogramming factors is required using viral vectors to generate mouse iPSCs. […] We hypothesized that activation of the TLR3 pathway might facilitate epigenetic alterations required for full transcriptional effect of the CPPs. We also attempted to mimic the biphasic effect of the reprogramming factors introduced as viral vectors by reducing the dose of CPPs after 6 days. Accordingly, we exposed human fibroblasts to the four CPP-transcription factors (Oct4-R11, Sox2-R11, Klf4-R11 and cMyc-R11) (at a dose of 200 nM for days 1-6, and a dose of 100 nM for days 7-21), in the presence or absence of poly I:C (300 ng/ml) for days 1-6 (FIG. 7A). The cultures were transferred to feeder cells (inactivated MEFs) at day 26. In the presence of poly I:C, Oct4 expression was accelerated (FIG. 7B). […] Small colonies were observed by day 21 and ES like colonies appeared by day 30, many of which expressed TRA-1-81 as indicated by live cell staining. By contrast, in human fibroblasts not exposed to poly I:C, colonies were not observed until day 30 days. By day 40, colony number was increased by more than 4-fold in cells exposed to poly I:C (FIG. 7C). Application of our insights regarding the role of TLR3 signaling in nuclear reprogramming permitted us to successfully reprogram human fibroblasts to pluripotency using CPPs.
Protein-iPSCs: Recombinant Oct4, Sox2, Klf4, and cMyc human proteins (CPPs) contained an eleven-arginine membrane penetration domain at the C terminus were obtained from Stemgent. Human fibroblasts were treated with CPPs encoding the reprogramming factors (CPP-Oct4, CPP-Sox2, CPP-Klf4 and CPP-Myc) daily for 6 days with 200 nM CPPs, followed by daily treatments of 100 nM CPPs from day 7 to day 20. Poly I:C (300 ng/ml) or vehicle was added to the cell simultaneously only up to day 6. The cells were passed onto MEF feeders at day 30. After 20 days of CPP treatments, wells were closely scanned for colonies.
Immunostaining of Live Cells For the detection of SSEA-1 or TRA-1-81 in live cells, the primary Ab (anti-mouse SSEA-1, antihuman TRA-1-81, Stemgent) was diluted to a final concentration of 2.5 to 5 μg/ml in fresh cell culture medium and incubated with cells for 30 minutes at 37° C. and 5% CO2. After gentle washing the cells were examined under a fluorescent microscope.

Oct4 and Sox2 promoters = assay: ChIP of histone H3 trimethylation at Oct4 and Sox2 promoters; assay type: cell-based, human
Method: We hypothesized that TLR3 activation might enhance early transcriptional activation by inducing an open chromatin state, permitting the reprogramming factors to induce an ESC-specific gene expression pattern. Accordingly, we performed ChIP assays to detect trimethylation of histone H3 at lysine 4 (H3K4me3). This epigenetic modification marks transcriptionally active genes. Human fibroblasts were treated with pMXSox2, or with CPPSox2 in the presence of poly I:C or pMXGFP. […] In a similar fashion, we assessed histone H3 at lysine 9 (H3K9me3) in the Oct4 and Sox2 promoters. This epigenetic modification marks transcriptionally silenced genes. […] These studies provided an epigenetic mechanism to explain the effect of TLR3 activation to enhance nuclear reprogramming.
Chromatin Immunoprecipitation and ChIP-qPCR qChIP was performed as previously described (Lim et al., 2009; Peng et al., 2009). For qChIP and qRT-PCR, error estimates are standard deviations. Recovery of genomic DNA as the percentage input was calculated as the ratio of copy numbers in the immunoprecipitate to the input control. Primers of Oct4 and Sox2 promoters were purchased from Cell Signaling.

NF-κB = NF-κB luciferase assay; assay type: cell-based, human; settings: BJ fibroblasts; poly IC 300 ng/ml
Method: NF-κB Luciferase assay BJ fibroblasts (3×105) were seeded in a 6-well plate and subjected to either pMX-GFP infection, CPP-SOX2 treatment with or without poly IC (300 ng/ml). Cells were transfected with pNF-κB-Luc and pFC-MEKK as a positive control plasmid using Lipofectamine 2000. Twentyfour hours post-transfection, cells were collected for measuring the luciferase activity by the Bright-Glo™ Luciferase Assay System using a luminometer.

[2] = in combination with CPPSox2, day 2

Polyinosinicpolycytidylic acid [Poly I:C]
changes in the morphology of the MEFs ([1]; 3 days): accelerated changes in the morphology | expression of Oct4 and Sox2 ([1]; poly I:C initial 6 days or pMX-GFP on first day): accelerated | increase in colony number (human fibroblasts; day 40, cells exposed to poly I:C versus not): more than 4 fold | Oct4 expression (human fibroblasts; four CPPs 200 nM days 1-6, 100 nM days 7-21, poly I:C 300 ng/ml days 1-6): accelerated | iPSC generation (human fibroblasts; four CPPs plus poly I:C 300 ng/ml days 1-6): accelerated iPSC generation | small colonies observed by (human fibroblasts; four CPPs plus poly I:C 300 ng/ml days 1-6, without poly I:C not until day 30): ≤ 21 days | H3K4 trimethylation at the Sox2 promoter (Oct4 and Sox2 promoters; CPP-treated fibroblasts): accelerated H3K4 trimethylation | H3K9 trimethylation at the Sox2 promoter (Oct4 and Sox2 promoters; CPP-treated fibroblasts): accelerated the loss of H3K9 trimethylation | H3K4 trimethylation at the Oct4 promoter (Oct4 and Sox2 promoters; agent alone, day 2 (time course day 2-6)): had no effect | H3K4 trimethylation at the Oct4 promoter (Oct4 and Sox2 promoters; [2]): induced changes in H3K4 trimethylation | H3K9 trimethylation at the Oct4 promoter (Oct4 and Sox2 promoters; [2]): enhanced the H3K9 trimethylation | NF-κB activation (luciferase reporter) (NF-κB): induced NF-κB activation
